Data from the Deep4Chem optical property database.

Assay: solvent given as SMILES

## COc1ccc(/C=C/c2ccc(-c3ccc(C)cn3)nc2)cc1
In CC#N
  fluorescence lifetime: 0.58 ns

## Cn1c(=O)c(/N=N/c2cc(S(=O)(=O)O)ccc2C(=O)O)c(O)c2ccccc21
In CS(C)=O
  fluorescence lifetime: 0.06 ns

## c1ccc(-p2c3ccccc3c3sc4ccccc4c32)cc1 (configuration not stated)
In ClCCl
  fluorescence lifetime: 3.57 ns

## CN(C)c1ccc2c(c1)C(=O)NC2=O
In C1CCOC1
  fluorescence lifetime: 13.8 ns
In C1COCCO1
  fluorescence lifetime: 14.9 ns
In CC#N
  fluorescence lifetime: 3.9 ns

## COc1ccc(-c2c3cc4cc(C)sc4cc3c(-c3ccc(OC)cc3)c3cc4cc(C)sc4cc23)cc1
In ClCCl
  fluorescence lifetime: 9.7 ns

## Cc1cc2nc3c(=O)[nH]c(=O)n(C)c3nc2cc1C
In CC#N
  fluorescence lifetime: 0.63 ns

## O=C1c2ccccc2-c2cnccc21
In CC#N
  fluorescence lifetime: 6.7 ns
In CCOC(C)=O
  fluorescence lifetime: 2.4 ns
In Cc1ccccc1
  fluorescence lifetime: 2.2 ns
In ClCCl
  fluorescence lifetime: 6.1 ns

## Nc1nc2ccc(Br)cc2s1
In CC#N
  fluorescence lifetime: 1.91 ns
In ClCCl
  fluorescence lifetime: 1.37 ns

## Nc1cccc2cc3ccccc3cc12
In C1CCCCC1
  fluorescence lifetime: 29 ns

## Cc1ccc2c(c1)c1cc(C)ccc1n2-c1c(-n2c3ccccc3c3ccccc32)c(C#N)c(-n2c3ccccc3c3ccccc32)c(-n2c3ccc(C)cc3c3cc(C)ccc32)c1-n1c2ccccc2c2ccccc21
In Cc1ccccc1
  fluorescence lifetime: 5.9 ns

## CNc1cccc2c1C(=O)c1ccccc1-2
In C1CCCCC1
  fluorescence lifetime: 1.6 ns
In CC#N
  fluorescence lifetime: 4.2 ns
In CCO
  fluorescence lifetime: 2.8 ns
In c1ccccc1
  fluorescence lifetime: 2.8 ns

## CCCCCCCc1ccc(C2=[N+]3C(=C4c5cc(OCC(CC)CC)c(-c6ccc(CCCCCCC)o6)n5[B-](F)(F)[n+]5nnn(c54)[B-]3(F)F)C=C2OCC(CC)CC)o1
In C1CCOC1
  fluorescence lifetime: 0.3 ns
In ClCCl
  fluorescence lifetime: 0.3 ns

## c1ccc(N(c2ccccc2)c2ccc(-c3ccc4c(c3)C3(c5cc(-c6ccc(N(c7ccccc7)c7ccccc7)cc6)ccc5O4)c4ccccc4-c4ccccc43)cc2)cc1
In ClCCl
  fluorescence lifetime: 1.2 ns

## FC(F)(F)c1ccc(/C=C/c2ccc(-c3nnc(-c4ccc(-c5cc6ccccc6s5)cc4)o3)cc2)cc1
In Cc1ccccc1
  fluorescence lifetime: 0.57 ns
In ClC(Cl)Cl
  fluorescence lifetime: 0.7 ns

## Cc1ccc2ccc3c(C)ccc4ccc1c2c43
In CCCCCC
  fluorescence lifetime: 54.7 ns
In CO
  fluorescence lifetime: 64.5 ns
In ClCCl
  fluorescence lifetime: 37.6 ns

## COc1ccc(C(=Cc2ccc(C#N)cc2)c2ccc(OC)cc2)cc1
In C1CCOC1
  fluorescence lifetime: 6.9 ns

## Cc1cc(-c2ccccc2)nc2c1ccc1nc(-c3ccccc3)cn12
In CC#N
  fluorescence lifetime: 6.97 ns
In CCCCOC(C)=O
  fluorescence lifetime: 6.04 ns
In CCOC(C)=O
  fluorescence lifetime: 5.98 ns
In CO
  fluorescence lifetime: 5.18 ns
In c1ccccc1
  fluorescence lifetime: 5.55 ns

## CC1(C)c2ccccc2N(c2c(F)cc(-c3nnc(-c4ccccc4)o3)cc2F)c2ccccc21
In Cc1ccccc1
  fluorescence lifetime: 8.8 ns

## Cc1c[nH]c(=O)[nH]c1=O
In CC#N
  fluorescence lifetime: 0.0002 ns

## FC(F)(F)c1cc2n(n1)[B-]1(c3ccccc3Oc3ccccc31)[n+]1ccc3ccccc3c1-2
In C1CCCCC1
  fluorescence lifetime: 1.79 ns
In Cc1ccccc1
  fluorescence lifetime: 1.85 ns
In ClCCl
  fluorescence lifetime: 2.45 ns

## Cc1cc2nc3c(=O)n(C)c(=O)n(C)c3nc2cc1C
In CC#N
  fluorescence lifetime: 0.64 ns

## Nc1ccc(/C=C/c2cccnc2)cc1
In CC#N
  fluorescence lifetime: 0.18 ns
In CCCCCC
  fluorescence lifetime: 0.22 ns

## CCN(CC)c1ccc2cc(-c3nc4c5ccccc5c5ccccc5c4n3-c3ccc(C(C)(C)C)cc3)c(=O)oc2c1
In ClCCl
  fluorescence lifetime: 12.6 ns

## CCN(CC)c1ccc2cc(/C=C/C(=C(C#N)C#N)c3ccc(N(c4ccccc4)c4ccccc4)cc3)c(=O)oc2c1
In CC(C)=O
  fluorescence lifetime: 0.59 ns
In CCOC(C)=O
  fluorescence lifetime: 1.31 ns
In CN(C)C=O
  fluorescence lifetime: 0.33 ns
In CS(C)=O
  fluorescence lifetime: 0.33 ns
In Cc1ccccc1
  fluorescence lifetime: 0.84 ns
In ClCCl
  fluorescence lifetime: 2.88 ns

## COc1ccc(OC)cc1
In C1CCCCC1
  fluorescence lifetime: 3.8 ns

## C=C[C@]12CC[C@H](CC1)N=N2
In CC#N
  fluorescence lifetime: 0.56 ns

## Cc1ccc2c(c1)C1(c3ccccc3-c3ccccc31)c1cc(C)ccc1N2c1ccc(-c2ncccn2)cc1
In O=P(c1ccccc1)(c1ccccc1)c1ccc2oc3ccc(P(=O)(c4ccccc4)c4ccccc4)cc3c2c1
  fluorescence lifetime: 13 ns

## c1ccc(-c2cc(-c3ccccc3)cc(-c3ccc4c(c3)C3(c5ccccc5-4)c4ccccc4-c4c3c3c5ccccc5c(-c5cc(-c6ccccc6)cc(-c6ccccc6)c5)cc3c3ccccc43)c2)cc1 (configuration not stated)
In Cc1ccccc1
  fluorescence lifetime: 2.14 ns

## CCOC(=O)c1ccc(C2CC(c3cccc4ccccc34)=NN2c2ccc(C)cc2)cc1 (configuration not stated)
In ClCCl
  fluorescence lifetime: 4.56 ns

## CCCn1c2cccc3c2[c+]2c4c1cccc4n(CCC)c1cccc(c12)n3CCC
In CC#N
  fluorescence lifetime: 7.5 ns
In CO
  fluorescence lifetime: 9.9 ns
In ClCCl
  fluorescence lifetime: 6.3 ns
In OCC(O)CO
  fluorescence lifetime: 11 ns

## N#Cc1cc(N2c3ccccc3Sc3ccccc32)cc(N2c3ccccc3Sc3ccccc32)c1
In Cc1ccccc1
  fluorescence lifetime: 22.6 ns

## CC1(C)c2cccc(-c3nc(-c4ccccc4)nc(-c4ccccc4)n3)c2Oc2c(N3c4ccccc4Sc4ccccc43)cccc21
In Cc1ccccc1
  fluorescence lifetime: 2.8 ns

## CCOc1cc2c(cc1/C=C/C(=C(C#N)C#N)c1ccccc1)c1ccccc1n2CC
In C1CCOC1
  fluorescence lifetime: 5.66 ns
In CC#N
  fluorescence lifetime: 5.72 ns
In CCO
  fluorescence lifetime: 5.24 ns
In CCOC(C)=O
  fluorescence lifetime: 5.19 ns
In CN(C)C=O
  fluorescence lifetime: 5.41 ns
In CS(C)=O
  fluorescence lifetime: 7.08 ns
In Cc1ccccc1
  fluorescence lifetime: 6.76 ns
In ClC(Cl)Cl
  fluorescence lifetime: 7.78 ns
In ClCCl
  fluorescence lifetime: 5.13 ns

## CN1C(=CC2=C([O-])C(=CC3=[N+](C)c4ccc(Cl)cc4C3(C)C)C2=O)C(C)(C)c2cc(Cl)ccc21
In CO
  fluorescence lifetime: 0.21 ns
In ClC(Cl)Cl
  fluorescence lifetime: 1.42 ns

## COC(=O)C12N=N[C@](C(=O)OC)(C3C4CCC(C4)C31)[C@@]1(C)C[C@@H]21 (some centres not stated)
In CC#N
  fluorescence lifetime: 116 ns

## CC1=[N+]2C(=C(NCc3ccccc3)c3ccc(C)n3[B-]2(F)F)C=C1c1cc2n(c1)[B-](F)(F)[N+]1=CC=CC1=C2c1c(C)cc(C)cc1C
In C1CCCCC1
  fluorescence lifetime: 2.19 ns
In CCOC(C)=O
  fluorescence lifetime: 0.54 ns

## O=C(O)CCCCCNC(=O)c1cccc2c(=O)c3ccccc3[nH]c12
In O
  fluorescence lifetime: 4.2 ns

## Cc1ccc(-c2ccc(-c3ccc(C)cc3)c(/C(=C(/c3ccccc3)c3cc(-c4ccc(C)cc4)ccc3-c3ccc(C)cc3)c3ccccc3)c2)cc1
In C1CCOC1
  fluorescence lifetime: 8 ns

## CC(C)(C)c1ccc(Oc2c3c4c(cc(Oc5ccc(C(C)(C)C)cc5)c5c6c(Oc7ccc(C(C)(C)C)cc7)c(Oc7ccc(C(C)(C)C)cc7)c7c8c(cc(Oc9ccc(C(C)(C)C)cc9)c(c(c2Oc2ccc(C(C)(C)C)cc2)c45)c86)C(=O)OC7=O)C(=O)OC3=O)cc1
In ClC(Cl)Cl
  fluorescence lifetime: 6 ns

## COc1ccc2c(c1)-c1ccccc1C2=O
In C1CCCCC1
  fluorescence lifetime: 5.3 ns
In CC#N
  fluorescence lifetime: 14 ns
In CCO
  fluorescence lifetime: 1.1 ns

## C=Cc1cc(OC)cc(OC)c1
In C1CCCCC1
  fluorescence lifetime: 3.8 ns
In CC#N
  fluorescence lifetime: 6.9 ns

## COC(=O)c1c(C(=O)OC)c2ccc(C)nn2c1C
In CCCCCC
  fluorescence lifetime: 14.1 ns

## COc1cc2c(cc1-c1ccc(C#N)cc1)Cc1c3c(c4c(c1-2)-c1cc(OC)c(-c2ccc(C#N)cc2)cc1C4)C(=O)N(CCC(C)C)C3=O
In C1CCOC1
  fluorescence lifetime: 2.1 ns

## c1ccc([B-]23NC(C4CCCCC4)=Nc4cccc([n+]42)N=C(C2CCCCC2)N3)cc1
In ClCCl
  fluorescence lifetime: 4.6 ns

## CC/C=C/C=C/C=C/C=C/CCCCCCCC(=O)O
In CCCCCCCCCC
  fluorescence lifetime: 3.1 ns
In CCCCO
  fluorescence lifetime: 1.5 ns

## Cc1ccc(C2=C3C=CC(C#Cc4ccccc4)=[N+]3[B-](F)(F)n3c(Cl)ccc32)cc1
In C1CCCCC1
  fluorescence lifetime: 4.31 ns
In C1CCOC1
  fluorescence lifetime: 4.24 ns
In C1COCCO1
  fluorescence lifetime: 4.43 ns
In CCOC(C)=O
  fluorescence lifetime: 4.34 ns
In CO
  fluorescence lifetime: 4.25 ns
In Cc1ccccc1
  fluorescence lifetime: 4.45 ns
In ClC(Cl)Cl
  fluorescence lifetime: 4.73 ns

## COc1cccc(/C=C/c2ccccc2)c1
In CC#N
  fluorescence lifetime: 0.93 ns

## Cc1ccc(C2=C3C=CC(C#Cc4ccccc4)=[N+]3[B-](F)(F)n3c(C#Cc4ccccc4)ccc32)cc1
In C1CCCCC1
  fluorescence lifetime: 6.58 ns
In C1CCOC1
  fluorescence lifetime: 6.62 ns
In C1COCCO1
  fluorescence lifetime: 6.44 ns
In CCOC(C)=O
  fluorescence lifetime: 6.74 ns
In CO
  fluorescence lifetime: 6.51 ns
In Cc1ccccc1
  fluorescence lifetime: 6.18 ns
In ClC(Cl)Cl
  fluorescence lifetime: 6.66 ns
